Source: publication PMC10046961, “High-Throughput Screening Assay for Detecting Drug-Induced Changes in Synchronized Neuronal Oscillations and Potential Seizure Risk Based on Ca^2+ Fluorescence Measurements in Human Induced Pluripotent Stem Cell (hiPSC)-Derived Neuronal 2D and 3D Cultures” (Cells, 2023)
Where two headings read alike, the source gives them in different places.

Tests used:
[1] = tested on: kainic-acid-induced seizures; conditions: cited from earlier work
[2] = tested on: hiPSC-derived neurons co-cultured with human primary astrocytes in 2D; assay: Ca2+ transient oscillation assay (FDSS), 2D co-culture; assay type: cell-based; conditions: for activation at 0.37 µM / activation at 1.11 µM / activation at 3.33 µM / activation at 10 µM: Homo sapiens, 1 h, 60 min
In short: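 Cultures were 10,000 CW50065 hiPSC excitatory neurons plus 2500 primary human astrocytes per well. Recordings used Cal-520 dye in HBSS/HEPES/glucose at 37 °C, with a 470/540 nm read at 2 Hz. Oscillations were stabilized with 0.04% DMSO, read for 20 min, then read again 60 min after compound addition (final DMSO 0.1%).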

[3] = tested on: hiPSC-derived neurons co-cultured with human primary astrocytes in 3D; assay: Ca2+ transient oscillation assay (FDSS), 3D spheroids; assay type: cell-based; conditions: 60 min
In short: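 Fura-2 fluorescence was read twice for 20 min each: a baseline 10 min after 0.04% DMSO, and again 60 min after compound addition at nominal final concentration. The 3D co-cultures (1:1 hiPSC neurons from a donor and human astrocytes, 8000 each) matured 5 weeks in BrainPhys medium after a 1-week differentiation.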

[4] = cited from earlier work
[5] = humans; cited from earlier work
[6] = ref PharmaPendium, cited from earlier work
[7] = read-out: Area under the curve - 2D Mean
[8] = read-out: Peak amplitude - 2D Mean
[9] = read-out: Peak-to-peak interval - 2D Mean
[10] = Table 1, peak plasma concentration in men, free therapeutic Cmax
[11] = Table 2, highest plasma concentration in humans after the therapeutic dose

CC(NC(C)(C)C)C(=O)c1cccc(Cl)c1 (centres unmarked) [Bupropion]
effect on kainic-acid-induced seizures in vitro [1]: attenuate | activation at 0.37 µM [2, 7]: 14.5% | activation at 0.37 µM ([2]; read-out: Peak Number—2D Mean): 12.7% | activation at 0.37 µM [2, 8]: 2.7% | activation at 0.37 µM ([2]; read-out: Peak width - 2D Mean): 12.8% | activation at 0.37 µM [2, 9]: -5.5% | activation at 1.11 µM [2, 7]: 26.6% | activation at 1.11 µM ([2]; read-out: Peak Number—2D Mean): 6.6% | activation at 1.11 µM [2, 8]: 5.4% | activation at 1.11 µM ([2]; read-out: Peak width - 2D Mean): 26.6% | activation at 1.11 µM [2, 9]: 3.4% | activation at 3.33 µM [2, 7]: 25.5% | activation at 3.33 µM ([2]; read-out: Peak Number—2D Mean): -12% | activation at 3.33 µM [2, 8]: 3.7% | activation at 3.33 µM ([2]; read-out: Peak width - 2D Mean): 29.2% | activation at 3.33 µM [2, 9]: 19.7% | activation at 10 µM [2, 7]: 39.3% | activation at 10 µM ([2]; read-out: Peak Number—2D Mean): 6% | activation at 10 µM [2, 8]: 4.7% | activation at 10 µM ([2]; read-out: Peak width - 2D Mean): 46.5% | activation at 10 µM [2, 9]: 41.8% | Area under the curve - 3D Mean ([3]; 0.37 µM): 137.5 % change from baseline | Peak Number—3D Mean ([3]; 0.37 µM): 1.3 % change from baseline | Peak amplitude - 3D Mean ([3]; 0.37 µM): 126.7 % change from baseline | Peak width - 3D Mean ([3]; 0.37 µM): 0.0 % change from baseline | Peak-to-peak interval - 3D Mean ([3]; 0.37 µM): 4.1 % change from baseline | Area under the curve - 3D Mean ([3]; 1.11 µM): 159.9 % change from baseline | Peak Number—3D Mean ([3]; 1.11 µM): −8.4 % change from baseline | Peak amplitude - 3D Mean ([3]; 1.11 µM): 134.2 % change from baseline | Peak width - 3D Mean ([3]; 1.11 µM): 9.4 % change from baseline | Peak-to-peak interval - 3D Mean ([3]; 1.11 µM): 15.3 % change from baseline | Area under the curve - 3D Mean ([3]; 3.33 µM): 154.1 % change from baseline | Peak Number—3D Mean ([3]; 3.33 µM): −2.2 % change from baseline | Peak amplitude - 3D Mean ([3]; 3.33 µM): 128.1 % change from baseline | Peak width - 3D Mean ([3]; 3.33 µM): 9.0 % change from baseline | Peak-to-peak interval - 3D Mean ([3]; 3.33 µM): 7.8 % change from baseline | Area under the curve - 3D Mean ([3]; 10 µM): 119.7 % change from baseline | Peak Number—3D Mean ([3]; 10 µM): 12.5 % change from baseline | Peak amplitude - 3D Mean ([3]; 10 µM): 118.0 % change from baseline | Peak width - 3D Mean ([3]; 10 µM): −1.4 % change from baseline | Peak-to-peak interval - 3D Mean ([3]; 10 µM): −3.5 % change from baseline

Cc1ccc(Nc2nccc(N(C)c3ccc4c(C)n(C)nc4c3)n2)cc1S(N)(=O)=O [Pazopanib]
effect on peak number / Ca2+ neuronal oscillations, in words ([2]; 2D format): significantly reduced peak number | activation at 0.37 µM [2, 7]: -1.8% | activation at 0.37 µM ([2]; read-out: Peak Number—2D Mean): -49% | activation at 0.37 µM [2, 8]: -15.8% | activation at 0.37 µM ([2]; read-out: Peak width - 2D Mean): -4.8% | activation at 0.37 µM [2, 9]: 14.6% | activation at 1.11 µM [2, 7]: 7.8% | activation at 1.11 µM ([2]; read-out: Peak Number—2D Mean): 4.4% | activation at 1.11 µM [2, 8]: -3.8% | activation at 1.11 µM ([2]; read-out: Peak width - 2D Mean): 12.6% | activation at 1.11 µM [2, 9]: -2.6% | activation at 3.33 µM [2, 7]: 38.8% | activation at 3.33 µM ([2]; read-out: Peak Number—2D Mean): 11.3% | activation at 3.33 µM [2, 8]: 11.2% | activation at 3.33 µM ([2]; read-out: Peak width - 2D Mean): 27.8% | activation at 3.33 µM [2, 9]: 0.5% | activation at 10 µM [2, 7]: 16.3% | activation at 10 µM ([2]; read-out: Peak Number—2D Mean): 10% | activation at 10 µM [2, 8]: 9.5% | activation at 10 µM ([2]; read-out: Peak width - 2D Mean): 3.7% | activation at 10 µM [2, 9]: 14.2% | Area under the curve - 3D Mean ([3]; 0.37 µM): 125.7 % change from baseline | Peak Number—3D Mean ([3]; 0.37 µM): 6.4 % change from baseline | Peak amplitude - 3D Mean ([3]; 0.37 µM): 101.6 % change from baseline | Peak width - 3D Mean ([3]; 0.37 µM): 9.7 % change from baseline | Peak-to-peak interval - 3D Mean ([3]; 0.37 µM): −2.0 % change from baseline | Area under the curve - 3D Mean ([3]; 1.11 µM): 127.9 % change from baseline | Peak Number—3D Mean ([3]; 1.11 µM): −4.2 % change from baseline | Peak amplitude - 3D Mean ([3]; 1.11 µM): 110.2 % change from baseline | Peak width - 3D Mean ([3]; 1.11 µM): 7.7 % change from baseline | Peak-to-peak interval - 3D Mean ([3]; 1.11 µM): 4.1 % change from baseline | Area under the curve - 3D Mean ([3]; 3.33 µM): 116.3 % change from baseline | Peak Number—3D Mean ([3]; 3.33 µM): 0.8 % change from baseline | Peak amplitude - 3D Mean ([3]; 3.33 µM): 107.5 % change from baseline | Peak width - 3D Mean ([3]; 3.33 µM): 4.1 % change from baseline | Peak-to-peak interval - 3D Mean ([3]; 3.33 µM): −3.0 % change from baseline | Area under the curve - 3D Mean ([3]; 10 µM): 117.4 % change from baseline | Peak Number—3D Mean ([3]; 10 µM): −2.0 % change from baseline | Peak amplitude - 3D Mean ([3]; 10 µM): 101.7 % change from baseline | Peak width - 3D Mean ([3]; 10 µM): 8.7 % change from baseline | Peak-to-peak interval - 3D Mean ([3]; 10 µM): 7.5 % change from baseline | seizure risk in humans [4]: does not have a seizure risk | crossing of the blood–brain barrier [5]: does not cross the blood–brain barrier | Free Cmax [6, 10]: 0.6 to 1.2 µM | Free Cmax [6, 11]: 0.6 to 1.2 µM

CCN(CC)CCCC(C)Nc1c2ccc(Cl)cc2nc2ccc(OC)cc12 (centres unmarked) [Quinacrine, quinacrine]
activation at 0.37 µM [2, 7]: 5.3% | activation at 0.37 µM ([2]; read-out: Peak Number—2D Mean): -2.7% | activation at 0.37 µM [2, 8]: 1.8% | activation at 0.37 µM ([2]; read-out: Peak width - 2D Mean): 2.8% | activation at 0.37 µM [2, 9]: 7% | activation at 1.11 µM [2, 7]: 11.2% | activation at 1.11 µM ([2]; read-out: Peak Number—2D Mean): -2.8% | activation at 1.11 µM [2, 8]: 1.2% | activation at 1.11 µM ([2]; read-out: Peak width - 2D Mean): 10.7% | activation at 1.11 µM [2, 9]: -4% | activation at 3.33 µM [2, 7]: -13.8% | activation at 3.33 µM ([2]; read-out: Peak Number—2D Mean): -11% | activation at 3.33 µM [2, 8]: -7.8% | activation at 3.33 µM ([2]; read-out: Peak width - 2D Mean): -12.8% | activation at 3.33 µM [2, 9]: 40.2% | activation at 10 µM [2, 7]: -84.7% | activation at 10 µM ([2]; read-out: Peak Number—2D Mean): -92.2% | activation at 10 µM [2, 8]: -78% | activation at 10 µM ([2]; read-out: Peak width - 2D Mean): -84.3% | activation at 10 µM [2, 9]: -18.2% | Area under the curve - 3D Mean ([3]; 0.37 µM): 123.5 % change from baseline | Peak Number—3D Mean ([3]; 0.37 µM): 3.2 % change from baseline | Peak amplitude - 3D Mean ([3]; 0.37 µM): 113.4 % change from baseline | Peak width - 3D Mean ([3]; 0.37 µM): −1.8 % change from baseline | Peak-to-peak interval - 3D Mean ([3]; 0.37 µM): −0.7 % change from baseline | Area under the curve - 3D Mean ([3]; 1.11 µM): 149.1 % change from baseline | Peak Number—3D Mean ([3]; 1.11 µM): 0.4 % change from baseline | Peak amplitude - 3D Mean ([3]; 1.11 µM): 128.3 % change from baseline | Peak width - 3D Mean ([3]; 1.11 µM): 4.2 % change from baseline | Peak-to-peak interval - 3D Mean ([3]; 1.11 µM): 6.2 % change from baseline | Area under the curve - 3D Mean ([3]; 3.33 µM): 139.1 % change from baseline | Peak Number—3D Mean ([3]; 3.33 µM): 14.1 % change from baseline | Peak amplitude - 3D Mean ([3]; 3.33 µM): 108.9 % change from baseline | Peak width - 3D Mean ([3]; 3.33 µM): 10.6 % change from baseline | Peak-to-peak interval - 3D Mean ([3]; 3.33 µM): −5.5 % change from baseline | Area under the curve - 3D Mean ([3]; 10 µM): 128.2 % change from baseline | Peak Number—3D Mean ([3]; 10 µM): 12.5 % change from baseline | Peak amplitude - 3D Mean ([3]; 10 µM): 108.3 % change from baseline | Peak width - 3D Mean ([3]; 10 µM): 9.5 % change from baseline | Peak-to-peak interval - 3D Mean ([3]; 10 µM): −9.8 % change from baseline | Free Cmax [6, 10]: 0.05 µM | Free Cmax [6, 11]: 0.05 µM
